This is an account of results in US7781423B2, “Compounds to promote regeneration of bone marrow” (priority 2007, dated 2010).

One data set relates to MXT mammary tumor. The data set is classed as in vivo. To be noted: for effect on body weight: MXT tumor-bearing, CP-treated mice, by day 22; for Total weight / Tumor weight / Body weight: CP 120-mg/kg i.p. x8 daily from day 6, CC compounds s.c. with each CP (1 and 3: 4.5-mg/kg, 26: 2.0-mg/kg); for Body weight: total minus tumor weight. Here is the method: This experiment was designed to determine whether in a tumor model CC compounds could prevent cyclophosphamide-induced loss of body weight resulting from the depression of blood marrow function. Specified pathogen free (SPF) hygienic category colonies of first generation hybrid BDF1 (C57B1 female×DBA/2 male) adult female mice, weighing 23-24 g, were used. The animals were kept in macrolon cages at 22-24° C. (45-55% humidity), with a lighting regimen of 12/12 h light/dark. […] The animals used in these studies were cared for according to the “Guiding Principles for the Care and Use of Animals” based upon the Helsinki declaration.
MXT mammary tumor pieces (containing about 10^6 tumor cells) were implanted subcutaneously to develop the tumors. After six days when the tumor-bearing mice were first treated, the sizes of the tumors were in the 0.26-0.30 cm^3 range. All compounds used were dissolved in 0.9% sodium chloride and applied subcutaneously (CC compounds) or intraperitoneally (CP) in 50 μl volume. Tumor volume was determined by using calipers in three dimensions; this technique is well known to one having ordinary skill in the art. Tumor volume was calculated according to the generally accepted formula: V=a^2×b×π/6, where “a” and “b” mean the shortest and longest diameter, respectively, of the measured tumor.
In the first group, animals received no treatment. In the second group, mice were administered 120-mg/kg of CP on day 6 followed by seven consecutive daily treatments with the same dose. In the third group, each treatment with CP was associated with administration of 4.5-mg/kg of CCompound1. In the fourth group, each treatment with CP was associated with administration of 4.5-mg/kg of CCompound3. In the fifth group, each treatment with CP was associated with administration of 2.0-mg/kg of CCompound26. Each group included 7 mice. All data represent the average of 7 determinations (one determination with each mouse in the group).

In data set [1] the test system is healthy mice. Nature of the data set: Toxicity in healthy mice. The data set is classed as in vivo. To be noted: for well tolerated maximal dose: mice weighing about 25 g. Here is the method: Accordingly, a well tolerated maximal dose for CCompound1 or CCompound3 in mice (weighing about 25 g) is […] which corresponds to a dose of 4.6 mg/kg. Therapeutically effective concentrations of CC compounds in humans will exert significant promoting effects on bone marrow regeneration without causing toxicity in other normal healthy tissues.

For data set [2], the system named is healthy mice. Nature of the data set: Toxicity in healthy mice. The data set is classed as in vivo. To be noted: 1,000-1,500 μmole doses.
In data set [3] the test system is cyclophosphamide-treated mice. Nature of the data set: Blood profile in cyclophosphamide-treated mice. As to conditions: for effect on blood profile (WBC, PTL): cyclophosphamide-treated mice, CCompound26 at a smaller dose than the two others. The data set is classed as in vivo, C57B1 mice. Here is the method: Twelve week old female C57B1 mice were used for the experiments. Each drug was administered intraperitoneally once a day for 5 consecutive days. In the second, third, fourth and fifth groups, mice were administered 120 mg/kg of cyclophosphamide (CP). In a third group, mice were also administered 4.5 mg/kg of CCompound1. In a fourth group, mice were also administered 4.5 mg/kg of CCompound3. In a fifth group, mice were also administered 2.0 mg/kg of CCompound26. In the first group, mice received no treatment. Each group included 5 animals. After 3 hours of the last treatments (on day 5), blood samples were collected from the ocular venous plexus of ether-anesthetized mice by retro-orbital venipuncture in heparanized tubes. Complete cell counts (RBC, red blood cell; WBC, white blood cell; PTL, platelet) were determined with a Sysmex F-800 hematology analyzer (To a Medical Electronics Co. LTD, Kobe, Japan). All data shown in Table 2 are the average of 5 independent determinations.

The subject of the next data set is human cancer patients. To be noted: following stem cell transplantation; cited from earlier work.
The mark [4] stands for this setting: single 450 μmole (about 4.6 mg/kg) or daily 400 μmole for 5 consecutive days.
Setting [5] is: i.p. once a day for 5 days, CP 120 mg/kg, CCompound1, 3: 4.5 mg/kg, CCompound26: 2.0 mg/kg, blood 3 hours after last treatment (day 5), 5 animals.
Where [6] appears, read: day 6 after tumor transplantation (first treatment day).
[7] abbreviates: day 8 after tumor transplantation.
Where [8] appears, read: day 11 after tumor transplantation.
Setting [9] is: day 15 after tumor transplantation.
The mark [10] stands for this setting: day 18 after tumor transplantation.
[11] abbreviates: day 22 after tumor transplantation.

Like-named read-outs stand apart in the source and are kept apart here.

In the case of `CC[N+](C)(CC)CCOCc1ccc2sc3ccccc3c(=O)c2c1.[I-]` [CCcompound3], the “effect on body weight” value in the data set with MXT mammary tumor is on record as “body weight gain”. In addition, the “well tolerated maximal dose” value in the data set with healthy mice [1] was 450 μmole/animal; with healthy mice [1] (corresponds to 450 μmole/animal), 4.6 mg/kg. The “change in the composition of various blood constituents” value in the data set on healthy mice [1] (setting [4]) was “did not cause any significant change”. Further, the “pathological alterations in the liver, brain, kidney, heart, spleen, intestine, and lung” value in the data set with healthy mice [1] (setting [4]) is on record as “did not induce significant pathological alterations”. The “tissue alterations at high doses” value in the data set on healthy mice [2] is “mild parenchymal degeneration in the heart, focal hypostasis and chronic bronchopneumonia”. The solubility in water entry in “Solubility in water” is recorded as “soluble in water”.
With `C=CC[N+](CC)(CC)CC/C=C1/c2ccccc2Sc2ccc(C)cc21.[Br-]` [CCcompound26, N,N-Diethyl-N-allyl-3-(2-methyl-9H-thioxanthen-9-ylidene)-propane-1-aminium bromide], the “effect on cyclophosphamide-induced decrease in white blood cell and platelet counts” value in data set [3] (2.0 mg/kg) is on record as “partially reversed”. Further, in data set [3], the “effect on blood profile (WBC, PTL)” value is recorded as “least effective”. In addition, in the data set with MXT mammary tumor (2.0 mg/kg, inferred from prevented body weight loss), the “toxic effects at the effective dose” value is on record as “does not exert significant toxic effects”. Also, the “effect on body weight” value with MXT mammary tumor is “prevented body weight loss”. Besides, in “Solubility in water”, the solubility in water result is on record as “water-soluble”.
As for `O=P1(N(CCCl)CCCl)NCCCO1` (centres unmarked) [CP, cyclophosphamide], in data set [3], the “effect on blood profile (WBC, PTL)” value is “decreases both WBC and PTL numbers”. For the same molecule, the PTL in data set [3] (setting [5]) is recorded as 404 ± 55 ×10^3/μl. In addition, the RBC in data set [3] (setting [5]) is listed as 8.1 ± 0.9 ×10^6/μl. Besides, the WBC in data set [3] (setting [5]) is reported as 3.2 ± 0.7 ×10^6/μl. In the data set with MXT mammary tumor (MXT tumor model), the “effect on tumor weight” value is recorded as “effectively decreased tumor weight”. Moreover, the “effect on body weight” value with MXT mammary tumor was “lost significant amounts of weight”. The Total weight is 22.4 grams with MXT mammary tumor (setting [6]); 21.8 grams in the data set on MXT mammary tumor (setting [7]); 20.2 grams in the data set on MXT mammary tumor (setting [8]); 19.9 grams in the data set on MXT mammary tumor (setting [9]); 18.8 grams in the data set with MXT mammary tumor (setting [10]); 18.1 grams with MXT mammary tumor (setting [11]). For the same molecule, the Tumor weight in the data set on MXT mammary tumor (setting [6]) amounted to 0.2 grams; in the data set on MXT mammary tumor (setting [7]) it was 0.2 grams; in the data set with MXT mammary tumor (setting [8]), 0.1 grams; with MXT mammary tumor (setting [9]) it was 0.2 grams; with MXT mammary tumor (setting [10]) it was 0.1 grams; in the data set on MXT mammary tumor (setting [11]) it was 0.1 grams. Besides, the Body weight in the data set on MXT mammary tumor (setting [6]) is listed as 22.2 grams; with MXT mammary tumor (setting [7]) it was 21.6 grams; in the data set with MXT mammary tumor (setting [8]), 20.1 grams; with MXT mammary tumor (setting [9]), 19.7 grams; in the data set with MXT mammary tumor (setting [10]) it was 18.7 grams; in the data set on MXT mammary tumor (setting [11]), 18.0 grams.

B1: granulocyte-colony stimulating factor (protein, UniProt P09919 31-207, looked up)
Granulocyte …: TPLGPASSLPQSFLLKCLEQVRKIQGDGAALQEKLVSECATYKLCHPEELVLLGHSLGIPWAPLSSCPSQALQLAGCLSQLHSGLFLYQGLLQALEGISPELGPTLDTLQLDVADFATTIWQQMEELGMAPALQPTQGAMPAFASAFQRRAGGVLVASHLQSFLEVSYRVLRHLAQP
notes: cytokine that can reduce the duration and severity of cyclophosphamide-induced neutropenia
Regarding B1, in the data set on human cancer patients, the “time to recover the platelet count to about 100,000 per 1 μl” value is “about 14 days” and the “time to recover the white blood cell count to 2,500 per 1 μl (mm^3)” value was “about 10 days”.
